Measured values published in ChEMBL document CHEMBL4665641, “Lead optimization and efficacy evaluation of quinazoline-based BET family inhibitors for potential treatment of cancer and inflammatory diseases” (Bioorg Med Chem Lett, 2019).
Activity calls are given as the source filed them. No cut-off for these calls is given here.

Tests used:
Kasumi 1 [1] = assay: Antitumor activity against human Kasumi-1 cells xenografted in CB17 SCID mouse assessed as inhibition of tumor growth at 40 mg/kg, po QD for 25 days; format: functional; conditions: Kasumi 1, po, 600 h, time 25 day, read-out: TGI
Kasumi 1 [2] = assay: Antitumor activity against human Kasumi-1 cells xenografted in CB17 SCID mouse assessed as tumor weight at 10 mg/kg, po administered for 25 days (reference value: 2.57 +/- 0.27 g); format: functional; conditions: time 25 day
[3] = Oral bioavailability in CD-1 mouse at 10 mg/kg; format: ADME, organism-based; conditions: mouse, in vivo, 10 mg/kg
[4] = target: T1, Bromodomain-containing protein 4 (Homo sapiens, UniProt O60885); assay: Competitive binding affinity to human partial length BRD4 (BD1,2) (N44 to E460 residues) expressed in bacterial expression system by BROMOscan assay
MV4-11 = assay: Cytotoxicity against human MV4-11 cells assessed as inhibition of cell viability; format: functional, cell-based
[5] = Half life in CD-1 mouse at 2 mg/kg, iv; format: ADME, organism-based; conditions: in vivo
[6] = Cmax in CD-1 mouse at 2 mg/kg, iv measured after 5 mins; format: ADME, organism-based; parameters: route intravenous, dose 2 mg/kg; conditions: mouse, in vivo, 5 min
[7] = AUC(0 to infinity) in CD-1 mouse at 10 mg/kg, po; format: ADME, organism-based; parameters: route oral, time infinity, dose 10 mg/kg; conditions: mouse, in vivo
[8] = Stability in mouse liver microsomes assessed as half life; format: ADME, Microsome
[9] = Stability in human liver microsomes assessed as half life; format: ADME, Microsome
[10] = Toxicity in CD1 mouse assessed as weight loss at 50 to 100 mg/kg, po administered once daily for 5 days and observed for 5 days after last dose; format: organism-based; conditions: in vivo, 120 h, dose 50-100 mg/kg, time 5 day
[11] = Toxicity in CD1 mouse assessed as mortality at 50 to 100 mg/kg, po administered once daily for 5 days and observed for 5 days after last dose; format: organism-based; conditions: in vivo, 120 h, dose 50-100 mg/kg, time 5 day
[12] = Efflux ratio of apparent permeability from basolateral side to apical side over apical side to basolateral side in human Caco2 cells; format: ADME, cell-based; conditions: caco-2
CYP1A2 = target: T2, CYP1A2 (Homo sapiens, UniProt P05177); assay: Inhibition of human CYP1A2 at 10 uM relative to control; format: ADME
T2 sequence (P05177 whole entry): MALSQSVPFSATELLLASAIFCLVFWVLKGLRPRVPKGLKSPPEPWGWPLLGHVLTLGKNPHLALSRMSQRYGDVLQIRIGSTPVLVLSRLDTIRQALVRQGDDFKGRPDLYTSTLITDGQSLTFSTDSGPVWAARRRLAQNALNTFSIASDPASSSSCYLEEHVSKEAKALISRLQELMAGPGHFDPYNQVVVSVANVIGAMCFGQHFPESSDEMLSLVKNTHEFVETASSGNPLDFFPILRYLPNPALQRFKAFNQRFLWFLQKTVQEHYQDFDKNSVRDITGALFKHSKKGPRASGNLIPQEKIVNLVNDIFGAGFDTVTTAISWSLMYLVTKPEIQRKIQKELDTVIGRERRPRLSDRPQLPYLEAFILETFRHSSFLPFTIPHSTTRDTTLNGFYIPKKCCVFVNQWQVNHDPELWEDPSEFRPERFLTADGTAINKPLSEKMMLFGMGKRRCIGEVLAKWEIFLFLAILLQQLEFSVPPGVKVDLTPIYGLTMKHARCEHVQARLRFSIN

Cytochrome P450 2C9 = Cytochrome P450 2C9 (Homo sapiens, UniProt P11712); assay: Inhibition of human CYP2C9 at […]; format: ADME; conditions: dose 2.1 µM
Chain of Cytochrome P450 2C9 (P11712 whole entry): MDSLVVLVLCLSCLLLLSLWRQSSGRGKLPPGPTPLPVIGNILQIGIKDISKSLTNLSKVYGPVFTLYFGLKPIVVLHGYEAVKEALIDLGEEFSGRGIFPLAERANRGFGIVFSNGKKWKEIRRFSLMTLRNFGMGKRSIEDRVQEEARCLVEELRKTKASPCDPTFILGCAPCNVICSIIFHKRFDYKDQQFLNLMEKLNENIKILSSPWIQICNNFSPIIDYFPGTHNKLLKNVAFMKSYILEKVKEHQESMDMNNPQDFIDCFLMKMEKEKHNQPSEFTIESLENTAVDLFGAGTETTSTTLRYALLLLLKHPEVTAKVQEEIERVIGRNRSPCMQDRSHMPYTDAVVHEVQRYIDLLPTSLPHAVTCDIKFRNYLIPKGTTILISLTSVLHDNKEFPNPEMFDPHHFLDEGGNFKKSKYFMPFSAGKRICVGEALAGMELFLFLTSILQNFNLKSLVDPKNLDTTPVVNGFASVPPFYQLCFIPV

Cytochrome P450 2C19 = Cytochrome P450 2C19 (Homo sapiens, UniProt P33261); assay: Inhibition of human CYP2C19 at 4.9 uM; format: ADME
Chain of Cytochrome P450 2C19 (P33261 whole entry): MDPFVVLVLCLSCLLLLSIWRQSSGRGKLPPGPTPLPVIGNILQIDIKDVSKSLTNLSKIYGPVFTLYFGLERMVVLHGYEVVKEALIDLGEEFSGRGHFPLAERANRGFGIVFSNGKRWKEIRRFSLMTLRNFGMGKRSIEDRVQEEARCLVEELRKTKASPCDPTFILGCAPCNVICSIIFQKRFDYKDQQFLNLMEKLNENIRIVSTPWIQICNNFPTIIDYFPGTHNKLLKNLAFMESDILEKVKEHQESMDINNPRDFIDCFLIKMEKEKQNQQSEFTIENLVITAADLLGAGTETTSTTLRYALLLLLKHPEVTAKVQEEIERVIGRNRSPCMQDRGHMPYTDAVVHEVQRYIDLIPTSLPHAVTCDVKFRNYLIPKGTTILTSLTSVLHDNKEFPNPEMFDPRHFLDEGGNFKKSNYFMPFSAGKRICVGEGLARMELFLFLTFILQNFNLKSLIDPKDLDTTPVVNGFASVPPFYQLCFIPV

Kasumi 1 [13] = assay: Antitumor activity against human Kasumi-1 cells xenografted in CB17 SCID mouse assessed as tumor volume at 10 mg/kg, po QD for 25 days (reference value: 2189 +/- 604 mm3); format: functional; conditions: time 25 day
Mus musculus [14] = assay: Antiarthritic activity in collagen/complete freund's adjuvant-induced arthritis DBA/1 mouse model assessed as reduction in arthritis severity score at 50 mg/kg, po administered via gavage once daily starting from day 21 to day 41 post collagen/CFA challenge and measured on day 0, 18, 21 followed by three times weekly up to 42 days; format: functional, organism-based; conditions: time 21.0 day
Mus musculus [15] = assay: Antiarthritic activity in collagen/complete freund's adjuvant-induced arthritis DBA/1 mouse model assessed as paw thickness at 50 mg/kg, po administered via gavage starting from day 21 to day 41 post collagen/CFA challenge and measured on day 21 by caliper analysis (reference value: 2.48 millimeter); format: functional; conditions: time 21 day
Mus musculus [16] = assay: Antiarthritic activity in collagen/complete freund's adjuvant-induced DBA/1 mouse model of arthritis assessed as reduction in joint inflammation at 50 mg/kg, po administered via gavage starting from day 21 to day 41 post collagen/CFA challenge and measured on day 42 by H&E staining based analysis; format: functional, organism-based; conditions: time 21.0 day
Mus musculus [17] = assay: Antiarthritic activity in collagen/complete freund's adjuvant-induced arthritis DBA/1 mouse model assessed as reduction in histological damage of hind paw at 50 mg/kg, po administered via gavage starting from day 21 to day 41 post collagen/CFA challenge and measured on day 42 by hematoxylin-eosin staining based assay; format: functional, organism-based; conditions: time 21.0 day
Mus musculus [18] = assay: (§1) Antiinflammatory activity in collagen/complete freund's adjuvant-induced arthritis DBA/1 mouse model assessed as IL-6 level in rear right paw at 50 mg/kg, po administered via gavage starting from day 21 to day 41 post collagen/CFA challenge and measured on day 42 measured per mg protein (reference value: 180.7 pg); format: functional; conditions: time 21 day
Mus musculus [19] = assay: as §1, with “IP-10” for “IL-6”, “6.23” for “180.7”; format: functional; conditions: time 21 day
Mus musculus [20] = assay: as §1, with “TNF-alpha” for “IL-6”, “0.88” for “180.7”; format: functional; conditions: time 21 day
Kasumi 1 [21] = assay: Antitumor activity against human Kasumi-1 cells xenografted in CB17 SCID mouse assessed as tumor volume at 10 mg/kg, po QD for 29 days (reference value: 1734 +/- 220 mm3); format: functional; conditions: time 29 day
Kasumi 1 [22] = assay: Antiproliferative activity against human Kasumi-1 cells after 72 hrs by Celltiter-Glo assay; format: functional, cell-based; conditions: Kasumi 1, 72 h
Mus musculus [23] = assay: Antiarthritic activity in collagen/complete freund's adjuvant-induced arthritis DBA/1 mouse model assessed as reduction in inflammatory symptoms at 50 mg/kg, po administered via gavage once daily starting from day 21 to day 41 post collagen/CFA challenge and measured from day 13 to 42; format: functional, organism-based; conditions: time 21.0 day
[24] = target: T1, Bromodomain-containing protein 4; assay: Inhibition of human full-length recombinant N-terminal His-tagged BRD4 (2 to 1362 residues) expressed in Sf9 cells using histone H4 peptide containing acetylated lysine residues as substrate preincubated with enzyme for 30 mins followed by incubation with substrate for 30 mins by Alphascreen assay […]
[25] = target: Bromodomain-containing protein 3 (Homo sapiens, UniProt Q15059); assay: Binding affinity to human partial length BRD3 (BD1,2) (P24 to P416 residues) expressed in bacterial expression system by BROMOscan assay
Chain of Bromodomain-containing protein 3 (Q15059 whole entry, the tested form may be a part): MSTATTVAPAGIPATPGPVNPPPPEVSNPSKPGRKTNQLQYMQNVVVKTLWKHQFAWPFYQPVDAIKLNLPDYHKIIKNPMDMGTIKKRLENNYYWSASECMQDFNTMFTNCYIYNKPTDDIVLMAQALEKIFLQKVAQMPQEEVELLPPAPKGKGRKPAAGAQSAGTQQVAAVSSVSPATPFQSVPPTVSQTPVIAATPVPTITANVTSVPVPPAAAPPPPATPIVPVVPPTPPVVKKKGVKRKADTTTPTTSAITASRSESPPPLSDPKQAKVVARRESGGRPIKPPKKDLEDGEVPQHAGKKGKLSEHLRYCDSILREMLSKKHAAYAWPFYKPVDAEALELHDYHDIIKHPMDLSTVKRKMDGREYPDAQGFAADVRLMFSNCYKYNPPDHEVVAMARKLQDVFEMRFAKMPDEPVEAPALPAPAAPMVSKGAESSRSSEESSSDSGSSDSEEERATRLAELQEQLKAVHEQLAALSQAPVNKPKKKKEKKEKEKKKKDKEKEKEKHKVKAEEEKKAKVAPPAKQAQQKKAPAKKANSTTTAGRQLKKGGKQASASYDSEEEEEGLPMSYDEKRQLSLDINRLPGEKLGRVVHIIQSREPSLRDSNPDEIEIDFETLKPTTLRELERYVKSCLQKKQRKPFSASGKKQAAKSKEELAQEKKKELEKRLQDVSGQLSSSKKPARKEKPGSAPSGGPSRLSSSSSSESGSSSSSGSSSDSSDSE

[26] = target: T3, Bromodomain testis-specific protein (Homo sapiens, UniProt Q58F21); assay: Binding affinity to human partial length BRDT (BD1) (N21 to E137 residues) expressed in bacterial expression system by BROMOscan assay
[27] = target: T3, Bromodomain testis-specific protein; assay: Binding affinity to human partial length BRDT (BD2) (K250 to E382 residues) expressed in bacterial expression system by BROMOscan assay
[28] = target: T3, Bromodomain testis-specific protein; assay: Binding affinity to human partial length BRDT (BD1,2) (N21 to E382 residues) expressed in bacterial expression system by BROMOscan assay

Cc1noc(C)c1-c1ccc2nc(-c3cnn(CC(C)(C)O)c3)nc(N3CCOC[C@@H]3c3ccccc3)c2c1
inhibition in vivo at 40 mg/kg (Kasumi 1 [1]): 98.6%
Activity (Kasumi 1 [2]): 1.51 g
F [3]: 75%
Kd [4]: 70 nM
IC50 (MV4-11): 940 nM
half-life [5]: 1.7 h
Cmax [6]: 2337 ng/mL
AUC [7]: 18927 ng·h/mL
t1/2 [8]: 0.367 h
half-life [9]: 1.7 h
Activity [10]: Non-Toxic
Activity [11]: Non-Toxic
Ratio [12]: 1
inhibition at 10 µM (CYP1A2): < 50%
INH (Cytochrome P450 2C9): Active
inhibition (INH) (Cytochrome P450 2C19): Active
Activity (Kasumi 1 [13]): 1303 mm3
Activity (Mus musculus [14]): Active
Activity (Mus musculus [15]): 1.83 mm
Activity (Mus musculus [16]): Active
Activity (Mus musculus [17]): Active
Activity (Mus musculus [18]): 21.62 pg
Activity (Mus musculus [19]): 0.92 pg
Activity (Mus musculus [20]): 0.46 pg
Activity (Kasumi 1 [21]): 1036 mm3
IC50 (Kasumi 1 [22]): 220 nM
Activity (Mus musculus [23]): Active
IC50 [24]: 14 nM
Kd [25]: 29 nM
Kd [26]: 76 nM
Kd [27]: 160 nM
Kd [28]: 170 nM
